In the assay the test system is primary mouse OPCs. Briefly: agarose drop migration assay. It is filed as cell-based. The following applies: any of the concentrations tested (0.3 nM to 3000 nM); after 5 days. The protocol: The effects of ponesimod, a selective S1P1 receptor agonist, and A971432, a selective S1P5 receptor agonist, on oligodendrocyte precursor cell (OPC) migration and differentiation were evaluated. Nine concentrations were tested (logarithmic dilutions ranging from 0.3 nM to 3000 nM, n=6 per concentration). Fingolimod phosphate (P-FTY720, 3000 nM, n=6) was included as a positive control, 0.1% DMSO was included (min.one/plate) as a negative control. Primary mouse OPCs were harvested on postnatal day 0 or 1 and mixed glia cultures were maintained for 14 days. Primary OPCs were then purified using the shake-off method, and used for either a migration assay, or a differentiation assay, as detailed below. To harvest primary mouse OPCs, cortices are isolated from mouse pups on postnatal day 0 or 1 and placed in ice-cold Dulbecco's Modified Eagle Medium (DMEM) (Sigma Aldrich, Overijse, BE). The cortices are homogenized and centrifuged for 5 minutes at 300 G. The supernatant is removed, and a papain solution is added for 30 minutes (125 uL DMEM solution per brain containing 20 units/ml papain and 40 μg/ml DNase, at 37 degrees). Digestion is inactivated by adding 9 ml cold DMEM. The solution is then centrifuged for 5 minutes at […]. The supernatant is carefully removed, and the pellet is resuspended in 2-5 ml culture medium (DMEM with 10% fetal calf serum (Biowest, Nuaillé, FR) and 1% pen/strep (Sigma Aldrich, Overijse, BE)). […] Cell suspension is divided over PLL (Sigma Aldrich, Overijse, BE)-coated flasks (2 brains per flask) and DMEM is added to a final volume of 10 ml. DMEM is replaced on day 4, 7, and 11. On day 7 and 11, insulin (Sigma Aldrich, Overijse, BE) is added to the medium (5μg/ml). On day 14, OPCs are separated from astrocytes by the shake-off method: flasks are placed on a shaker for 45 minutes at 75 rpm (37 degrees). […] The extent of cell migration is then measured after 5 days using Incucyte imaging analysis and fluorescent endpoint staining. For each well, the 15-20 cells that migrated the furthest away from the agarose drop are measured and averaged. […]

Consider `O=C(O)C1CN(Cc2ccc(OCc3ccc(Cl)c(Cl)c3)cc2)C1` [A97], for which the migration distance result is “did not affect migration distance”.

With `CCC/N=C1\S/C(=C\c2ccc(OC[C@H](O)CO)c(Cl)c2)C(=O)N1c1ccccc1C` [ponesimod, (R)-5-[3-chloro-4-(2,3-dihydroxy-propoxy)-benz[Z]ylidene]-2-([Z]-propylimino)-3-o-tolyl-thiazolidin-4-one], the migration distance result was “did not affect migration distance”.
